# The source made the active and inactive calls. No cut-off for these calls is given here.
# Tests used:
# [1] = tested on: Erythrocyte; assay: Hemolytic activity in sheep RBC assessed as minimal hemolytic concentration causing 10% hemolysis incubated for 1 hr by ELISA; assay type: toxicity, cell-based, Ovis aries
# [2] = tested on: Staphylococcus aureus; assay: Additive antibacterial activity against methicillin-resistant Staphylococcus aureus CCARM 3089 strain assessed as chloramphenicol MIC by checkerboard assay; assay type: functional
# [3] = tested on: Escherichia coli; assay: Antibacterial activity against Escherichia coli KCTC 1682 strain assessed as bacterial growth inhibition measured at 18 to 24 hrs by microdilution assay; assay type: functional; conditions: time 18-24 hrs
# [4] = tested on: Pseudomonas aeruginosa; assay: Antibiofilm activity against multidrug-resistant Pseudomonas aeruginosa assessed as biofilm eradication; assay type: functional
# [5] = tested on: Staphylococcus aureus; assay: Synergistic antibacterial activity against multidrug-resistant Staphylococcus aureus CCARM 3089 strain assessed as oxacillin fractional inhibitory concentration by checkerboard assay; assay type: functional
# [6] = tested on: Escherichia coli; assay: Antibacterial activity against Escherichia coli KCTC 1682 strain assessed as bacterial growth inhibition measured at 18 to 24 hrs in presence of 2.5 mM CaCl2 by microdilution assay; assay type: functional; conditions: time 18-24 hrs
# [7] = tested on: Staphylococcus aureus; assay: Antibacterial activity against Staphylococcus aureus KCTC 1621 strain assessed as bacterial growth inhibition measured at 18 to 24 hrs in presence of 2.5 mM CaCl2 by microdilution assay; assay type: functional; conditions: time 18-24 hrs
# [8] = tested on: Staphylococcus aureus; assay: Antibacterial activity against methicillin-resistant Staphylococcus aureus CCARM 3090 strain assessed as bacterial growth inhibition measured at 18 to 24 hrs by microdilution assay; assay type: functional; conditions: time 18-24 hrs
# [9] = tested on: Pseudomonas aeruginosa; assay: Synergistic antibacterial activity against multidrug-resistant Pseudomonas aeruginosa CCARM 2095 strain assessed as ciprofloxacin fractional inhibitory concentration in presence of ciprofloxacin by checkerboard assay; assay type: functional
# [10] = tested on: Escherichia coli; assay: Antibacterial activity against Escherichia coli KCTC 1682 strain assessed as bacterial growth inhibition measured after 6 hrs in presence of chymotrypsin by radial diffusion assay; assay type: functional, organism-based
# [11] = tested on: Escherichia coli; assay: Antibacterial activity against Escherichia coli KCTC 1682 strain assessed as bacterial growth inhibition measured at 18 to 24 hrs in presence of 20% human serum by microdilution assay; assay type: functional; conditions: time 18-24 hrs
# [12] = tested on: RAW264.7; assay: Antiinflammatory activity in LPS-induced mouse RAW264.7 cells assessed as reduction in iNOS mRNA expression level at 5 ug/ml measured after 18 hrs by RT-PCR assay relative to control; assay type: functional, cell-based; conditions: dose 5.0 µg/ml
# [13] = tested on: Staphylococcus aureus; assay: Antibacterial activity against Staphylococcus aureus KCTC 1621 strain assessed as bacterial growth inhibition measured at 18 to 24 hrs in presence of 4.5 mM KCl by microdilution assay; assay type: functional; conditions: time 18-24 hrs
# [14] = tested on: Staphylococcus aureus; assay: Synergistic antibacterial activity against methicillin-resistant Staphylococcus aureus CCARM 3089 strain assessed as bacterial growth inhibition in presence of oxacillin by checkerboard assay; assay type: functional
# [15] = tested on: Escherichia coli; assay: Antibacterial activity against Escherichia coli KCTC 1682 strain assessed as bacterial growth inhibition measured at 18 to 24 hrs in presence of 4.5 mM KCl by microdilution assay; assay type: functional; conditions: time 18-24 hrs
# [16] = tested on: Pseudomonas aeruginosa; assay: Antibacterial activity against multidrug-resistant Pseudomonas aeruginosa CCARM 2109 strain assessed as bacterial growth inhibition measured at 18 to 24 hrs by microdilution assay; assay type: functional; conditions: time 18-24 hrs
# [17] = tested on: Staphylococcus aureus; assay: Antibacterial activity against methicillin-resistant Staphylococcus aureus CCARM 3089 strain assessed as bacterial growth inhibition measured at 18 to 24 hrs by microdilution assay; assay type: functional; conditions: time 18-24 hrs
# [18] = tested on: Escherichia coli; assay: Antibacterial activity against Escherichia coli KCTC 1682 strain assessed as bacterial growth inhibition measured at 18 to 24 hrs in presence of 4 uM FeCl3 by microdilution assay; assay type: functional; conditions: time 18-24 hrs
# [19] = tested on: Escherichia coli; assay: Antibacterial activity against Escherichia coli KCTC 1682 strain assessed as bacterial growth inhibition measured at 18 to 24 hrs in presence of 150 mM NaCl by microdilution assay; assay type: functional; conditions: time 18-24 hrs
# [20] = tested on: Pseudomonas aeruginosa; assay: Synergistic antibacterial activity against multidrug-resistant Pseudomonas aeruginosa CCARM 2095 strain assessed as fractional inhibitory concentration index in presence of ciprofloxacin by checkerboard assay; assay type: functional
# [21] = tested on: Staphylococcus aureus; assay: Antibacterial activity against methicillin-resistant Staphylococcus aureus CCARM 3095 strain assessed as bacterial growth inhibition measured at 18 to 24 hrs by microdilution assay; assay type: functional; conditions: time 18-24 hrs
# [22] = tested on: Cell membrane; assay: Induction of outer membrane permeabilization in Escherichia coli KCTC 1682 assessed as increase in fluorescence intensity at 2 to 8 ug/ml by NPN staining based analysis; conditions: dose 2-8 µg/ml
# [23] = tested on: Escherichia coli; assay: Antibacterial activity against Escherichia coli KCTC 1682 strain assessed as bacterial growth inhibition measured after 6 hrs in presence of proteinase K by radial diffusion assay; assay type: functional, organism-based
# [24] = tested on: Escherichia coli; assay: Antibacterial activity against Escherichia coli KCTC 1682 strain assessed as bacterial growth inhibition measured after 6 hrs in presence of trypsin by radial diffusion assay; assay type: functional, organism-based
# [25] = tested on: Cell membrane; assay: Induction of inner membrane permeabilization in Escherichia coli ML-35 assessed as increase in […] at 2 times MIC by ONPG staining based analysis
# [26] = tested on: RAW264.7; assay: Antiinflammatory activity in LPS-induced mouse RAW264.7 cells assessed as reduction in TNF alpha mRNA expression level at 20 ug/ml measured after 18 hrs by RT-PCR assay relative to control; assay type: functional, cell-based; conditions: dose 20.0 µg/ml
# [27] = tested on: Cell membrane; assay: Induction of cell membrane damage in Escherichia coli KCTC 1682 assessed as increase in fluorescent intensity at 2 times MIC incubated for 30 mins by PI staining based flow cytometry assay (reference value: 9.79 %); assay type: subcellular
# [28] = tested on: DNA; assay: Binding affinity to plasmid DNA (unknown origin) assessed as retardation of DNA migration at 4 to 8 ug/ml incubated for 1 hr by agarose gel electrophoresis method; assay type: nucleic-acid assay; conditions: dose 4-8 µg/ml
# [29] = tested on: Pseudomonas aeruginosa; assay: Synergistic antibacterial activity against multidrug-resistant Pseudomonas aeruginosa CCARM 2095 strain assessed as fractional inhibitory concentration index in presence of oxacillin by checkerboard assay; assay type: functional
# [30] = tested on: Lipopolysaccharide (LPS); assay: Displacement of BODIPY-TR-cadaverine from Escherichia coli O111:B4 lipopolysaccharide assessed as increase in fluorescence at 5 ug/ml by fluorescence based assay relative to control; conditions: dose 5.0 µg/ml
# [31] = tested on: Pseudomonas aeruginosa; assay: Synergistic antibacterial activity against multidrug-resistant Pseudomonas aeruginosa CCARM 2095 strain assessed as chloramphenicol fractional inhibitory concentration in presence of chloramphenicol by checkerboard assay; assay type: functional
# [32] = tested on: Staphylococcus aureus; assay: Synergistic antibacterial activity against multidrug-resistant Staphylococcus aureus CCARM 3089 strain assessed as fractional inhibitory concentration index in presence of ciprofloxacin by checkerboard assay; assay type: functional
# [33] = tested on: Pseudomonas aeruginosa; assay: Synergistic antibacterial activity against multidrug-resistant Pseudomonas aeruginosa CCARM 2095 strain assessed as oxacillin fractional inhibitory concentration by checkerboard assay; assay type: functional
# [34] = tested on: Staphylococcus aureus; assay: Synergistic antibacterial activity against methicillin-resistant Staphylococcus aureus CCARM 3089 strain assessed as fractional inhibitory concentration in presence of ciprofloxacin by checkerboard assay; assay type: functional
# [35] = tested on: Pseudomonas aeruginosa; assay: Synergistic antibacterial activity against multidrug-resistant Pseudomonas aeruginosa CCARM 2095 strain assessed as fractional inhibitory concentration index in presence of chloramphenicol by checkerboard assay; assay type: functional
# [36] = tested on: Pseudomonas aeruginosa; assay: Synergistic antibacterial activity against multidrug-resistant Pseudomonas aeruginosa CCARM 2095 strain assessed as bacterial growth inhibition in presence of oxacillin by checkerboard assay; assay type: functional
# [37] = tested on: Staphylococcus aureus; assay: Synergistic antibacterial activity against methicillin-resistant Staphylococcus aureus CCARM 3089 strain assessed as bacterial growth inhibition in presence of ciprofloxacin by checkerboard assay; assay type: functional
Structure (SMILES),MHC [1] [µM],MIC [3] [µM],MIC [6] [µM],MIC [7] [µM],MIC [8] [µM],Activity [10],MIC [11] [µM],Activity [12],MIC [13] [µM],MIC [15] [µM],MIC [16] [µM],MIC [17] [µM],MIC [18] [µM],MIC [19] [µM],MIC [21] [µM],Activity [22],Activity [23],Activity [24],Activity [25],Activity [26],other results
NCCNc1nc(NCCN)nc(N2CC(Cc3ccccc3)N(c3nc(NCCN)nc(NCCN)n3)CC2Cc2ccccc2)n1 (stereo not drawn),> 389.1,6.1,6.1,6.1,3,Active,12.2,Active,6.1,6.1,24.3,48.6,12.2,6.1,12.2,inactive,Active,Active,inactive,Active,MIC [2]: 128 µg/mL; MBEC50 [4]: 24.3 µM; MBEC90 [4]: 97.3 µM; FIC [5]: 0.25; FIC [9]: 0.25; MIC [14]: 8 µg/mL; fractional inhibitory concentration index (FICI) [20]: 0.5; Flu intensity [27]: 8.57%; Activity [28]: Active
NCCCCNc1nc(NCCCCN)nc(N2CC(Cc3ccccc3)N(c3nc(NCCCCN)nc(NCCCCN)n3)CC2Cc2ccccc2)n1 (stereo not drawn),> 332.8,10.4,10.4,10.4,5.2,Active,10.4,Active,5.2,10.4,10.4,5.2,10.4,10.4,10.4,inactive,Active,Active,inactive,Active,fractional inhibitory concentration index (FICI) [29]: 0.5; MIC [2]: 64 µg/mL; FIC [5]: 0.25; Activity [30]: > 50%; FIC [31]: 0.25; fractional inhibitory concentration index (FICI) [32]: 0.375; FIC [33]: 0.25; FIC [9]: 0.25; FIC [34]: 0.25; fractional inhibitory concentration index (FICI) [35]: 0.375; MIC [14]: 1 µg/mL; fractional inhibitory concentration index (FICI) [20]: 0.375; MIC [36]: 8 µg/mL; MIC [37]: 1 µg/mL; Flu intensity [27]: 6.03%; Activity [28]: Active
N=C(N)NCCNc1nc(NCCNC(=N)N)nc(N2CC(Cc3ccccc3)N(c3nc(NCCNC(=N)N)nc(NCCNC(=N)N)n3)CC2Cc2ccccc2)n1 (stereo not drawn),> 309.8,17.7,9.7,9.6,4.8,Active,9.7,Active,4.8,9.7,19.4,9.7,19.4,9.7,9.7,inactive,Active,Active,inactive,Active,MIC [2]: 128 µg/mL; Activity [30]: > 50%; Flu intensity [27]: 2.55%; Activity [28]: Active
NCCN(CCN)c1nc(NCc2ccccc2)nc(N2CC(Cc3ccccc3)N(c3nc(NCc4ccccc4)nc(N(CCN)CCN)n3)CC2Cc2ccccc2)n1 (stereo not drawn),> 342.5,5.4,5.4,5.4,5.4,Active,5.4,Active,5.4,5.4,10.7,5.4,10.8,5.4,5.4,inactive,Active,Active,inactive,Active,fractional inhibitory concentration index (FICI) [29]: 0.375; MBEC50 [4]: 10.4 µM; MBEC90 [4]: 10.4 µM; FIC [5]: 0.25; Activity [30]: 75%; FIC [31]: 0.25; fractional inhibitory concentration index (FICI) [32]: 0.375; FIC [33]: 0.125; FIC [9]: 0.125; FIC [34]: 0.25; fractional inhibitory concentration index (FICI) [35]: 0.5; MIC [14]: 1 µg/mL; fractional inhibitory concentration index (FICI) [20]: 0.375; MIC [36]: 4 µg/mL; MIC [37]: 1 µg/mL; Flu intensity [27]: 10.5%; Activity [28]: Active
NCCCN(CCCN)c1nc(NCc2ccccc2)nc(N2CC(Cc3ccccc3)N(c3nc(NCc4ccccc4)nc(N(CCCN)CCCN)n3)CC2Cc2ccccc2)n1 (stereo not drawn),> 318.5,5,5,5,2.8,Active,10,Active,2.5,5,10,5,5,2.5,5,inactive,Active,Active,inactive,Active,fractional inhibitory concentration index (FICI) [29]: 0.5; MBEC50 [4]: 10 µM; MBEC90 [4]: 39.8 µM; FIC [5]: 0.25; Activity [30]: > 50%; FIC [31]: 0.25; fractional inhibitory concentration index (FICI) [32]: 0.375; FIC [33]: 0.25; FIC [9]: 0.25; FIC [34]: 0.25; fractional inhibitory concentration index (FICI) [35]: 0.375; MIC [14]: 1 µg/mL; fractional inhibitory concentration index (FICI) [20]: 0.312; MIC [36]: 4 µg/mL; MIC [37]: 1 µg/mL; Flu intensity [27]: 3.03%; Activity [28]: Active

# From ChEMBL document CHEMBL5331051, “Cationic, amphipathic small molecules based on a triazine-piperazine-triazine scaffold as a new class of antimicrobial agents” (Eur J Med Chem, 2022)
